Literature values, collected in patent US20240000752A1, “MICROSUSPENSION AGAINST PARASITES AND METHOD FOR OBTAINING SAME” (Ipanema Industria de Productos Veterinarios Ltda, priority 2020, published 2024).

Legend:
[1] = test system: Ostertagia ostertagi Cooperia pectinata, Cooperia punctata, Trichostrongylus axei, Trichostrongylus colubriformis, Oesophagostomum radiatum, Haemonchus placei …

| Structure (SMILES) | pka | solubility in water | efficacy against endoparasites and ectoparasites [1] |
| --- | --- | --- | --- |
| CCC[S+]([O-])c1ccc2[nH]c(NC(=O)OC)nc2c1 (stereo not drawn) [albendazole sulfoxide] | 7.8 | low solubility in water |  |
| CO[C@H]1C[C@H](O[C@H]2[C@H](C)O[C@@H](O[C@@H]3/C(C)=C/C[C@@H]4C[C@@H](C[C@]5(C=C[C@H](C)[C@@H](C6CCCCC6)O5)O4)OC(=O)[C@@H]4C=C(C)[C@@H](O)[C@H]5OC/C(=C\C=C\[C@@H]3C)[C@]54O)C[C@@H]2OC)O[C@@H](C)[C@@H]1O [doramectin] |  |  | effective |
